Results published in patent publication US10793568B2, “Hormone receptor modulators for treating metabolic conditions and disorders” (ARDELYX, INC., priority 2016, dated 2020).

Key:
[1] = target: human Farnesoid X receptor ligand-binding domain/Gal4 DNA binding domain chimera (Homo sapiens (Human), UniProt Q96RI1); test: Cell-based assay of FXR activation (FXR-UAS-bla HEK 293T beta-lactamase reporter); details: cellular FXR beta-lactamase reporter assay; for Emax: HEK-293T, extent of activation relative to GW4064, read-out: % Efficacy; for EC50: FXR-UAS-bla HEK 293T cells, 16 h, pEC50 = -log EC50
Chain of human Farnesoid X receptor ligand-binding domain/Gal4 DNA binding domain chimera (Q96RI1 262-486, stated change not applied): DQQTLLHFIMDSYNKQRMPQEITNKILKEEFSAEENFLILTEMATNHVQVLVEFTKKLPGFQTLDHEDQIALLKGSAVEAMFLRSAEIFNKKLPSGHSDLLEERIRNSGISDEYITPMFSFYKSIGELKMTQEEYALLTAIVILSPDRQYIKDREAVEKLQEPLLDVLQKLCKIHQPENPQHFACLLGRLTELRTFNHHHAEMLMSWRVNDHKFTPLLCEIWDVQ
Chain of human Farnesoid X receptor ligand-binding domain/Gal4 DNA binding domain chimera (P04386 1-147 partner): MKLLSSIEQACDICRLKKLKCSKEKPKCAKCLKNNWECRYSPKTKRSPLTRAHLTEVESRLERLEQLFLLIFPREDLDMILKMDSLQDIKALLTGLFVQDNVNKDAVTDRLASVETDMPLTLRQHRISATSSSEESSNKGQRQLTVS
Method: FXR activation was measured using a cell line and procedure obtained from Life Technologies (Cat # K1691). FXR-UAS-bla HEK 293T cells contain a human Farnesoid X receptor ligand-binding domain/Gal4 DNA binding domain chimera stably integrated into the CellSensor® UAS-bla HEK 293T cell line. The CellSensor® UAS-bla HEK 293T contains a beta-lactamase reporter gene under control of a UAS response element stably integrated into HEK 293T cells. Activation of FXR by bound ligands results in transcriptional activation of the beta-lactamase reporter gene, which is detected via assay of beta-lactamase activity.
Cells are harvested and diluted into assay medium containing phenol red-free DMEM supplemented with 2% Charcoal-stripped FBS, pyruvate, non-essential amino acids. Cells are then transferred to a 384 well assay plate. Test compounds are dissolved in DMSO and a 3-fold serial dilution series is generated, then further diluted into assay medium. Compounds in assay medium are added to cells in the 384 well plate and allowed to incubate 16 h at 37 C in the presence of 5% CO2.
A FRET-based […] is loaded into cells as its acetomethoxy ester. Intracellular esterases liberate free CCF4, a cephalosporin core linking 7-hydroxycoumarin to fluorescein. In the presence of beta-lactamase activity produced in the presence of FXR agonists, cleavage of CCF4 spatially separates the two dyes and disrupts FRET, so that exciting the coumarin at 409 nm now produces a blue fluorescence signal at 447 nm. The change in FRET signal is plotted against the test compound concentration and fit to a 3-parameter logistical equation. The concentration required to produce 50% activation is expressed as pEC50 (−log EC50), and the extent of activation is expressed relative to GW4064 as % activation.

[2] = target: ligand binding domain of human FXR (Homo sapiens (Human), UniProt Q96RI1); test: FXR ligand binding assay (LanthaScreen TR-FRET, SRC2-2 peptide recruitment); details: for pEC50: -log EC50, concentration required to produce 50% activation; for Emax: extent of activation relative to GW4064, read-out: % Efficacy
Chain of ligand binding domain of human FXR (Q96RI1 262-486): as the sequence (Q96RI1 262-486, stated change not applied) above

Row | SMILES | Emax [1] [%] | EC50 [1] [nM] | pEC50 [2] | Emax [2] [%]
1 | O=C(NS(=O)(=O)C1CC1)c1cc(F)c2nc(N3C[C@@H]4C[C@H]3C[C@H]4OCc3c(-c4c(Cl)cccc4Cl)noc3C3CC3)sc2c1 [Compound I-30, N-(cyclopropanesulfonyl)-2-[(1S,4S,5R)-5-{[5-cyclopropyl-3-(2,6-dichlorophenyl)-1,2-oxazol-4-yl]methoxy}-2-azabicyclo[2.2.1]heptan-2-yl]-4-fluoro-1,3-benzothiazole-6-carboxamide] | 114 | 2.51 | 8.6 | 160
2 | CS(=O)(=O)NC(=O)c1cc(F)c2nc(N3C[C@@H]4C[C@H]3C[C@H]4OC(=O)c3c(-c4c(Cl)cccc4Cl)noc3C3CC3)sc2c1 [Compound I-31, (1S,4S,5R)-2-[4-fluoro-6-(methanesulfonylcarbamoyl)-1,3-benzothiazol-2-yl]-2-azabicyclo[2.2.1]heptan-5-yl 5-cyclopropyl-3-(2,6-dichlorophenyl)-1,2-oxazole-4-carboxylate] | 115 | 158 | 7.4 | 117
3 | CCCS(=O)(=O)NC(=O)c1cc(F)c2nc(N3C[C@@H]4C[C@H]3C[C@H]4OC(=O)c3c(-c4c(Cl)cccc4Cl)noc3C3CC3)sc2c1 [Compound I-32, (1S,4S,5R)-2-{4-fluoro-6-[(propane-1-sulfonyl)carbamoyl]-1,3-benzothiazol-2-yl}-2-azabicyclo[2.2.1]heptan-5-yl 5-cyclopropyl-3-(2,6-dichlorophenyl)-1,2-oxazole-4-carboxylate] | 110 | 126 | 7.6 | 148
4 | O=C(NS(=O)(=O)C1CC1)c1cc(F)c2nc(N3C[C@@H]4C[C@H]3C[C@H]4OC(=O)c3c(-c4c(Cl)cccc4Cl)noc3C3CC3)sc2c1 [Compound I-33, (1S,4S,5R)-2-{6-[(cyclopropanesulfonyl)carbamoyl]-4-fluoro-1,3-benzothiazol-2-yl}-2-azabicyclo[2.2.1]heptan-5-yl 5-cyclopropyl-3-(2,6-dichlorophenyl)-1,2-oxazole-4-carboxylate] | 112 | 126 | 7.6 | 136
5 | O=C(O)c1cc(F)c2nc(N3C[C@@H]4C[C@H]3C[C@@H]4OC(=O)c3c(-c4c(Cl)cccc4Cl)noc3C3CC3)sc2c1 [Compound I-34, 2-[(1S,4S,5S)-5-[5-cyclopropyl-3-(2,6-dichlorophenyl)-1,2-oxazole-4-carbonyloxy]-2-azabicyclo[2.2.1]heptan-2-yl]-4-fluoro-1,3-benzothiazole-6-carboxylic Acid] | 15 | 398 | >4.5 | –
6 | O=C(O)c1ccc2nc(N3C[C@@H]4C[C@H]3C[C@@H]4OC(=O)c3c(-c4c(Cl)cccc4Cl)noc3C3CC3)sc2c1 [Compound I-35, 2-[(1S,4S,5S)-5-[5-cyclopropyl-3-(2,6-dichlorophenyl)-1,2-oxazole-4-carbonyloxy]-2-azabicyclo[2.2.1]heptan-2-yl]-1,3-benzothiazole-6-carboxylic Acid] | 19 | 631 | >4.5 | –
7 | COC(=O)c1cc(F)c2nc(N3C[C@@H]4C[C@H]3C[C@@H]4OCc3c(-c4c(Cl)cccc4Cl)noc3C3CC3)sc2c1 [Compound I-36, Methyl 2-[(1S,4S,5S)-5-{[5-cyclopropyl-3-(2,6-dichlorophenyl)-1,2-oxazol-4-yl]methoxy}-2-azabicyclo[2.2.1]heptan-2-yl]-4-fluoro-1,3-benzothiazole-6-carboxylate] | 50 | 6310 | 5.4 | 86
8 | O=C(O)c1cc(F)c2nc(N3C[C@@H]4C[C@H]3C[C@@H]4OCc3c(-c4c(Cl)cccc4Cl)noc3C3CC3)sc2c1 [Compound I-37, 2-[(1S,4S,5S)-5-{[5-cyclopropyl-3-(2,6-dichlorophenyl)-1,2-oxazol-4-yl]methoxy}-2-azabicyclo[2.2.1]heptan-2-yl]-4-fluoro-1,3-benzothiazole-6-carboxylic Acid] | 82 | 1580 | >4.5 | 0
9 | O=C(O)c1cc(F)c2nc(N3C[C@H]4C[C@@H]3C[C@@H]4OC(=O)c3c(-c4c(Cl)cccc4Cl)noc3C3CC3)sc2c1 [Compound I-38, 2-[(1R,4R,5S)-5-[5-cyclopropyl-3-(2,6-dichlorophenyl)-1,2-oxazole-4-carbonyloxy]-2-azabicyclo[2.2.1]heptan-2-yl]-4-fluoro-1,3-benzothiazole-6-carboxylic Acid] | 96 | 200 | 6.3 | 56
10 | O=C(O)c1cc(F)c2nc(N3C[C@H]4C[C@@H]3C[C@@H]4OCc3c(-c4c(Cl)cccc4Cl)noc3C3CC3)sc2c1 [Compound I-39, 2-[(1R,4R,5S)-5-{[5-cyclopropyl-3-(2,6-dichlorophenyl)-1,2-oxazol-4-yl]methoxy}-2-azabicyclo[2.2.1]heptan-2-yl]-4-fluoro-1,3-benzothiazole-6-carboxylic Acid] | 105 | 50.1 | 7.8 | 96
11 | O=C(O)c1cc(F)c2nc(N3C[C@H]4C[C@@H]3C[C@H]4OC(=O)c3c(-c4c(Cl)cccc4Cl)noc3C3CC3)sc2c1 [Compound I-40, 2-[(1R,4R,5R)-5-[5-cyclopropyl-3-(2,6-dichlorophenyl)-1,2-oxazole-4-carbonyloxy]-2-azabicyclo[2.2.1]heptan-2-yl]-4-fluoro-1,3-benzothiazole-6-carboxylic Acid] | – | < 31600 | >4.5 | –
12 | O=C(O)c1cc(F)c2nc(N3C[C@H]4C[C@@H]3C[C@H]4OCc3c(-c4c(Cl)cccc4Cl)noc3C3CC3)sc2c1 [Compound I-41, 2-[(1R,4R,5R)-5-{[5-cyclopropyl-3-(2,6-dichlorophenyl)-1,2-oxazol-4-yl]methoxy}-2-azabicyclo[2.2.1]heptan-2-yl]-4-fluoro-1,3-benzothiazole-6-carboxylic Acid] | 40 | 2510 | >4.5 | –
13 | O=C(O)c1ccc(N2C[C@@H]3C[C@H]2C[C@H]3OC(=O)c2c(-c3c(Cl)cccc3Cl)noc2C2CC2)cc1 [Compound I-42, 4-[(1S,4S,5R)-5-[5-cyclopropyl-3-(2,6-dichlorophenyl)-1,2-oxazole-4-carbonyloxy]-2-azabicyclo[2.2.1]heptan-2-yl]benzoic Acid] | 110 | 39.8 | 7.6 | 166
14 | O=C(O)c1ccc(N2C[C@@H]3C[C@H]2C[C@H]3OC(=O)c2c(-c3c(Cl)cccc3Cl)noc2C2CC2)c(F)c1 [Compound I-43, 4-[(1S,4S,5R)-5-[5-cyclopropyl-3-(2,6-dichlorophenyl)-1,2-oxazole-4-carbonyloxy]-2-azabicyclo[2.2.1]heptan-2-yl]-3-fluorobenzoic Acid] | 124 | 6.31 | 7.8 | 176
15 | O=C(O)c1ccc(N2C[C@@H]3C[C@H]2C[C@H]3OC(=O)c2c(-c3c(Cl)cccc3Cl)noc2C2(F)CC2)c(F)c1 [Compound I-44, 4-[(1S,4S,5R)-5-[3-(2,6-dichlorophenyl)-5-(1-fluorocyclopropyl)-1,2-oxazole-4-carbonyloxy]-2-azabicyclo[2.2.1]heptan-2-yl]-3-fluorobenzoic Acid] | 107 | 10 | 7.6 | 152
